# According to the supplement of paper PMC10307832:
# Key:
# Experiment in all cases: relative viability (nuclei count vs DMSO), 5 days (fraction); higher = more cells survive
# [1] = compound: CCN(CC)CCCCNc1ncc2cc(-c3cc(OC)cc(OC)c3)c(NC(=O)NC(C)(C)C)nc2n1
# Method in brief: (§1)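 Cells of lung cancer lines were placed in 1536-well plates and kept overnight at 37 °C. Pinning then delivered five library-drug doses (not always all listed), spaced by √10, onto plates anchored with vehicle, and the cells were left 5 days without changing medium. One step fixed, permeabilised and stained them with Hoechst, and MetaXpress counted nuclei in 4× images. Viability, as a median over plates, is treated-well nuclei divided by vehicle-well nuclei, with acceptance only at control CV below 25% and at least one doubling.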
# Zibotentan = compound: COc1nc(C)cnc1NS(=O)(=O)c1cccnc1-c1ccc(-c2nnco2)cc1 [Zibotentan]
# Method in brief: as §1
# [2] = compound: O=c1cc(-c2cccc3c2Sc2ccccc2S3)oc(N2CCOCC2)c1
# Method in brief: as §1
# [3] = compound: C1COCCN1C2=CC(=O)C3=C(O2)C(=CC=C3)C4=CC=CC5=C4SC6=CC=CC=C56
# Method in brief: as §1
# PRIMA-1MET = compound: COCC1(CO)C(=O)C2CCN1CC2 [PRIMA-1MET]
# Method in brief: as §1
Cell Line,relative viability ([1]; 0.01 µM),relative viability ([1]; 0.03162 µM),relative viability ([1]; 0.1 µM),relative viability ([1]; 0.3162 µM),relative viability ([1]; 1 µM),relative viability (Zibotentan; 0.08 µM),relative viability (Zibotentan; 0.253 µM),relative viability (Zibotentan; 0.8 µM),relative viability (Zibotentan; 2.53 µM),relative viability ([2]; 0.08 µM),relative viability ([2]; 0.253 µM),relative viability ([2]; 0.8 µM),relative viability ([2]; 2.53 µM),relative viability ([2]; 8 µM),relative viability ([3]; 0.01 µM),relative viability ([3]; 0.03162 µM),relative viability ([3]; 0.1 µM),relative viability ([3]; 0.3162 µM),relative viability ([3]; 1 µM),relative viability (PRIMA-1MET; 0.2 µM),relative viability (PRIMA-1MET; 0.6325 µM),relative viability (PRIMA-1MET; 2 µM),relative viability (PRIMA-1MET; 6.325 µM),relative viability (PRIMA-1MET; 20 µM)
NCI-H838,0.99,0.971,1.01,0.97,0.643,0.962,0.87,0.987,0.998,0.979,1.09,0.862,0.947,0.887,1.04,0.966,0.98,0.99,0.893,1.05,0.946,0.841,1.08,0.659
NCI-H1299,1.03,1.06,1.09,1.06,1.02,1.02,1.02,0.998,1.02,1.02,1.02,1.04,1.02,1.01,1.01,0.987,1.02,0.994,1.01,1.08,1.03,1.03,1.02,0.977
NCI-H1355,1.08,0.938,1.04,1.11,0.939,1,0.984,0.955,1,0.955,1.13,0.837,0.904,0.953,0.991,1.04,0.74,1.03,0.928,0.955,0.908,0.894,0.973,0.927
NCI-H1395,0.731,0.894,0.979,0.869,0.652,1.02,0.819,0.901,1.16,0.816,0.863,1.02,0.81,1.23,0.944,0.987,0.888,1.15,0.822,0.925,0.676,0.866,0.964,0.551
NCI-H1437,1.08,0.979,1.08,1.11,0.945,1.02,0.882,0.964,0.995,1.01,1.16,1.11,0.918,1.18,0.955,0.98,1.02,1.05,0.959,1.03,0.859,0.971,1,0.96
NCI-H1563,1.03,0.95,1.04,0.928,0.729,1.04,0.716,1,1.09,0.973,0.988,0.933,0.989,0.986,0.972,1.01,0.944,0.975,0.977,1.05,0.968,0.806,1.06,0.457
NCI-H1623,0.951,0.888,0.913,0.993,0.933,0.936,0.744,1.05,0.85,1.03,0.981,0.957,0.944,1.07,0.939,0.932,0.888,0.931,0.888,1.07,0.943,0.926,0.997,0.598
NCI-H1648,1.02,1.16,0.927,0.656,0.544,1.04,0.786,0.84,0.932,0.742,1.16,0.792,0.591,0.921,0.861,1.03,1.14,0.932,0.959,0.852,0.715,1.07,0.722,0.75
NCI-H1650,0.981,0.983,1.08,0.981,0.706,0.937,,0.994,0.968,0.851,1.07,0.844,0.888,0.868,0.788,0.893,0.998,0.957,0.788,1.1,0.858,0.793,0.912,0.489
NCI-H1651,1.04,0.988,1.05,1.06,0.979,1.03,0.912,0.937,1.03,0.974,1.13,0.983,0.941,1.07,0.983,0.976,0.975,0.998,0.944,1.08,0.901,0.907,1.04,0.946
NCI-H1666,0.942,0.993,1,1.17,0.973,1.02,0.879,1.03,1.06,0.94,1.09,1.02,0.911,1,0.996,0.959,1.01,1.02,0.953,0.993,0.868,0.962,0.938,0.942
NCI-H1703,0.832,0.854,1.19,1.04,0.723,0.972,0.94,1.25,0.505,0.718,1.01,1.03,0.925,0.843,1.19,0.926,0.964,0.958,0.861,1.19,0.852,0.815,0.797,0.0528
NCI-H1734,0.949,1.1,1.09,1.03,0.85,1.04,0.884,1.02,1,0.98,1.13,1.1,,1.13,0.977,1.01,0.883,0.997,0.964,1.03,0.75,0.734,0.945,0.0584
NCI-H1755,1.04,1.05,1.08,1.1,1.01,0.972,0.987,0.926,0.977,0.96,1.03,1.05,1.06,1.05,1.03,1.01,0.986,0.994,0.985,1.04,0.928,0.85,1.07,0.999
